From US20230372393A1, “METHODS FOR ALLOGENEIC HEMATOPOIETIC STEM CELL TRANSPLANTATION” (Orca Biosystems, Inc., priority 2020, published 2023) come the findings set out here.

Holding throughout (format): in vivo, human
Assay [1] concerns subjects with advanced hematologic malignancies undergoing myeloablative alloHCT. Briefly: Clinical study: chronic GVHD (NIH criteria). To be noted: serum tacrolimus trough higher versus lower than 4 ng/ml, FIG. 9B. The protocol:
(§1) A clinical study was conducted in subjects with advanced hematologic malignancies undergoing myeloablative allogeneic hematopoietic cell transplantation (alloHCT).
(§2) Personnel who identified subjects for the SOC cohort were blinded as to their clinical outcomes.

Assay [2] shares this test system. Put plainly: Clinical study: GVHD and relapse-free survival, cGVHD-free survival. The conditions noted are these: tacrolimus-only relative to sirolimus-only patients, FIG. 7G.
Source text: GVHD and relapse-free survival is a composite readout that can refer to survival without relapse or Grade ≥3 acute or extensive chronic GVHD.
The test system is the same in assay [3]. Briefly: Clinical study: disease relapse and disease status. The conditions noted are these: tacrolimus-only relative to sirolimus-only patients. The protocol: as §1, §2
Assay [4] has as its system CD3+ cells of donor origin. Briefly: Donor T cell chimerism versus tacrolimus trough level. To be noted: lower average trough tacrolimus level through day +30, p=0.0011, FIG. 9H. As to the method:
Peripheral blood samples from subjects were also analyzed for chimerism as part of the follow-up procedures. The blood samples were processed to select for various cell populations using standard markers for each cell population. Blood was drawn from subjects that received the composition of the disclosure on day +28, day +56, day +100, day +180 and day +365 post-transplant, and the frequency of peripheral blood cells were quantified by flow cytometry (Markers used for analysis are described in Table 16).
Without wishing to be bound by a theory, it can be hypothesized that an improved chimerism due to higher tacrolimus levels may have led to the improved GVHD and survival outcomes in patients.

In assay [5] the test system is subjects with advanced hematologic malignancies undergoing myeloablative alloHCT. Put plainly: Clinical study: overall survival. The conditions noted are these: tacrolimus-only relative to sirolimus-only patients, FIG. 7H.
Source text: Overall survival: OS was defined as the time from the date of transplant to the date of death from any cause or, for surviving patients, to the date of last follow-up.
Assay [6] shares this test system. Briefly: Clinical study: acute GVHD (MAGIC criteria). As to the method:
as §1, §2
Acute GVHD was staged and graded per MAGIC Standardization criteria.
Acute GVHD: Acute GVHD (aGVHD) is a significant driver of morbidity and mortality associated with alloHCT, reducing the severity and incidence of aGVHD has the potential to greatly benefit graft recipients. Acute GVHD was staged and graded per Mount Sinai Acute GvHD International Consortium (MAGIC) Standardization criteria.

Molecules are shown by their SMILES.

Consider `C=CC[C@@H]1/C=C(\C)C[C@H](C)C[C@H](OC)[C@H]2O[C@@](O)(C(=O)C(=O)N3CCCC[C@H]3C(=O)O[C@H](/C(C)=C/[C@@H]3CC[C@@H](O)[C@H](OC)C3)[C@H](C)[C@@H](O)CC1=O)[C@H](C)C[C@@H]2OC` [tacrolimus], for which the “chronic GVHD rates” value in assay [1] was “improvements”. In assay [2], the GRFS rates result is given as “improved”. In assay [3], the “survival (FIG. 7E)” value is reported as “improved”. Also, in assay [3] (FIG. 7F), the relapse rates entry is recorded as “improved”. Further, the “engraftment of donor T cells (T cell chimerism)” value in assay [4] was “increased engraftment of donor T cells”. Also, the overall survival rates entry in assay [5] is reported as “improved”. For the same compound, the GVHD rates result in assay [6] (average serum tacrolimus trough level higher than 4 ng/ml for the first 30 days post-transplant, FIG. 8A) is reported as “lower GVHD rates”; in assay [6] (same conditioning regimen (Bu/Cy or TBI/BFT), trough higher versus lower than 4 ng/ml, FIGS. 9C-G), “improvement in GVHD rates”; in assay [6] (tacrolimus only versus sirolimus only prophylaxis, FIGS. 7A-C), “higher GVHD rates”. Moreover, the “Acute GVHD rates” value in assay [6] (serum tacrolimus trough higher versus lower than 4 ng/ml, FIG. 9A) was “significant improvement”.
